In the oligonucleotide strings, read from the 5' end, every base follows the letter of its sugar. An asterisk marks phosphorothioate; unmarked linkages are phosphodiester. Other units and linkages are bracketed, terminal groups are in braces. A string of capitals states the bases alone. d = 2'-deoxy (DNA)
Key:
[1] = cited from earlier work
[2] = molecular target: T1, HMGA1 (Homo sapiens, UniProt P17096); test: Electrophoretic mobility shift assay (EMSA), HMGA1 competitive binding against ATf10 DNA; conditions: for formation of HMGA/ATf10 DNA complex in presence of competitor DNA: equal amounts of ATf10 and CG10 or Mix10, ATf10 DNA:HMGA1 1:1
T1 construct: The cDNA for full length HMGA1b was cloned into pET-30b; made in house; host or cells: Escherichia coli BL21 (DE3)
T1 sequence (P17096 1-96 isoform P17096-2): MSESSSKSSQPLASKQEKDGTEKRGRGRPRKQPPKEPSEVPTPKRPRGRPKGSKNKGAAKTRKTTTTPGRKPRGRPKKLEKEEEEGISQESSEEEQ
Procedure: The cDNA for full length HMGA1b was cloned into pET-30b and overexpressed in Eschericia coli (E. Coli) BL21 (DE3). E. coli expressing HMGA1b was cultured at 37° C. to an OD600 measurement of 0.8 to 1.0 OD600. Protein expression was induced by the addition of 1 mM IPTG and shaking at 37° C. for 4-6 hours. HMGA1 was purified by trichloroacetic acid precipitation as described in R. Reeves, HMGA proteins: isolation, biochemical modifications, and nucleosome interactions. Methods in enzymology 375 (2004) 297-322, the disclosure of which is incorporated herein by reference. Overexpressed HMGA1b was further purified with a Sephadex G-25 column in H2O and lyophilized using a standard freezedrying procedure. The samples were resolublized in a 25 mM Tris-HCl (pH 6.5), 50 mM NaCl buffer for analysis.
The following 28-mer oligonucleotides were purchased from Integrated DNA Technologies (Coralville, Iowa, USA): ATf10 5′-(56FAM)-[…]-3′ (SEQ ID NO: 4), and ATs10 5′-GGGT*T*T*T*T*T*T*T*T*T*[…]-3′ (SEQ ID NO: 5) (the “*” indicates the location of phosphorothioate linkage). ATf10 contained a fluorescence tag to serve as a marker for later analysis. […] AT10f was annealed with its complementary strand without a fluorescence tag, and ATs10 was annealed with a strand with no sulfur substitution. […]
The HMGA protein samples were prepared in 25 mM Tris-HCl (pH 6.5), 50 mM NaCl, and the concentrations determined based on UV […] absorbance (ε=38,200 mol-1 cm-1). […] The DNA was detected at 495 nm using the VersaDoc™ Imaging System Model 3000 from BIO-RAD Laboratories, Inc. of Hercules, Calif. […]
In order to determine if HMGA1 DNA binding activity was affected by sulfur substitution in the DNA phosphodiester backbone, fluorescence labeled DNA (ATf10 DNA) was used in competitive binding assays against various sulfur substituted DNAs where different ratios of ATf10 DNA and ATs10 DNA were added to a constant amount of purified HMGA1 (FIG. 1A). […]
Since ATs10 DNA has no fluorescence label, no signal could be detected when only ATs10DNA was added to HMGA1 (FIG. 1A, lane 9). […]

Molecule	formation of HMGA/ATf10 DNA complex in presence of competitor DNA [2]	further results
NC(=O)OC[C@H]1c2c(O)cc(C=O)cc2N2CC3N[C@@H]3[C@]1(O)O2 (stereo partly shown) [FR900482]	–	toxicity in humans [1]: high toxicity
ATs10: 28-mer oligonucleotide with phosphorothioate linkages in the T tract (SEQ ID NO: 5) (DNA dGdGdGdT*dT*dT*dT*dT*dT*dT*dT*dT*dT*dCdGdCdGdGdCdGdGdCdCdCdCdGdCdG; annealed with complementary strand)	–	ATf10 DNA detected in the unshifted position ([2]; 1:1 ratio of ATf10 DNA to ATs10 DNA, ATf10 DNA to HMGA1 1:1.5 (FIG. 1A, lane 4)): approximately half
CG10: negative control DNA containing only a mixture of C and G (SEQ ID NO: 6) (DNA GGGCCCCCCCCCCCGCGGCGGCCCCGCG; DNA, all phosphodiester, methylation of C not given here)	still observed	–
Mix10: negative control DNA, random sequence of A, T, C, G with no AT-stretch (SEQ ID NO: 7) (DNA GGGCGTGACTGAGCGCGGCGGCCCCGCG; DNA, all phosphodiester, methylation of C not given here)	still observed	–
